Test results from ChEMBL document CHEMBL1165963, “Bryonolic acid: a large-scale isolation and evaluation of heme oxygenase 1 expression in activated macrophages” (2010).
The source made the active and inactive calls. The calls are words filed in the database; no cut-off is given here.

Experiments:
RAW264.7 [1] = test: Effect on COX2 expression in mouse RAW264.7 cells after 24 hrs by Western blot; assay type: functional, cell-based
RAW264.7 [2] = test: Immunomodulatory effect in LPS-stimulated mouse RAW264.7 cells assessed as increase in heme oxygenase 1 expression at 50 uM after 24 hrs by Western blot relative to untreated control; assay type: functional
RAW264.7 [3] = test: Effect on iNOS expression in mouse RAW264.7 cells after 24 hrs by Western blot; assay type: functional, cell-based
RAW264.7 [4] = test: Immunomodulatory effect in LPS-stimulated mouse RAW264.7 cells assessed as increase in heme oxygenase 1 expression after 24 hrs by Western blot; assay type: functional, cell-based
RAW264.7 [5] = test: Immunomodulatory effect in LPS-stimulated mouse RAW264.7 cells assessed as increase in heme oxygenase 1 expression at 100 uM after 24 hrs by Western blot relative to untreated control; assay type: functional
RAW264.7 [6] = test: Immunomodulatory effect in LPS-stimulated mouse RAW264.7 cells assessed as increase in heme oxygenase 1 expression at 50 uM after 24 hrs by Western blot relative to LPS; assay type: functional
RAW264.7 [7] = test: Immunomodulatory effect in LPS-stimulated mouse RAW264.7 cells assessed as increase in heme oxygenase 1 expression at 100 uM after 24 hrs by Western blot relative to LPS; assay type: functional

Q: For `CC1(C)[C@@H](O)CC[C@]2(C)C3=C(CC[C@@H]12)[C@@]1(C)CC[C@@]2(C)CC[C@@](C)(C(=O)O)C[C@H]2[C@]1(C)CC3` [BRYONOLIC ACID], which Activity (RAW264.7 [1]) is on record?
A: inactive

Q: What about the “fold change (FC)” value (RAW264.7 [2]) of the same compound?
A: 13

Q: What about the Activity (RAW264.7 [3]) of the same compound?
A: inactive

Q: What about the Activity (RAW264.7 [4]) of the same compound?
A: Dose-dependent effect

Q: What about the “fold change (FC)” value (RAW264.7 [5]) of the same compound?
A: 55

Q: What about the “fold change (FC)” value (RAW264.7 [6]) of the same compound?
A: 3.3

Q: What about the “fold change (FC)” value (RAW264.7 [7]) of the same compound?
A: 14
